Reference: ChEMBL document CHEMBL4507268 (2021)

Assays:
Conditions in all cases: Compound concentration 1.0 uM
[1] = target: T1, cAMP-dependent protein kinase catalytic subunit PRKX (Homo sapiens) (UniProt P51817)
T1 sequence (whole entry): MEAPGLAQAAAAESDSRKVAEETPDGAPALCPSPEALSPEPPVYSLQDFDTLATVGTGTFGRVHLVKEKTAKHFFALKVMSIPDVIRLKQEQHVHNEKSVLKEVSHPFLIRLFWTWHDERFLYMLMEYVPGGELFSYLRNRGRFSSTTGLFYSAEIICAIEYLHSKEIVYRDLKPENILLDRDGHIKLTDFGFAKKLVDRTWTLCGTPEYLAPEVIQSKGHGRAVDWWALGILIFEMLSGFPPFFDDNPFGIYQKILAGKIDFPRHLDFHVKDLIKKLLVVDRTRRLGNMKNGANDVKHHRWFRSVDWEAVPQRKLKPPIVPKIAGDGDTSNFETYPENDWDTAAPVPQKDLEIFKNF

[2] = target: Serine/threonine-protein kinase 10 (Homo sapiens) (UniProt O94804)
[3] = target: T2, Inhibitor of nuclear factor kappa-B kinase subunit beta (Homo sapiens) (UniProt O14920)
T2 sequence (whole entry): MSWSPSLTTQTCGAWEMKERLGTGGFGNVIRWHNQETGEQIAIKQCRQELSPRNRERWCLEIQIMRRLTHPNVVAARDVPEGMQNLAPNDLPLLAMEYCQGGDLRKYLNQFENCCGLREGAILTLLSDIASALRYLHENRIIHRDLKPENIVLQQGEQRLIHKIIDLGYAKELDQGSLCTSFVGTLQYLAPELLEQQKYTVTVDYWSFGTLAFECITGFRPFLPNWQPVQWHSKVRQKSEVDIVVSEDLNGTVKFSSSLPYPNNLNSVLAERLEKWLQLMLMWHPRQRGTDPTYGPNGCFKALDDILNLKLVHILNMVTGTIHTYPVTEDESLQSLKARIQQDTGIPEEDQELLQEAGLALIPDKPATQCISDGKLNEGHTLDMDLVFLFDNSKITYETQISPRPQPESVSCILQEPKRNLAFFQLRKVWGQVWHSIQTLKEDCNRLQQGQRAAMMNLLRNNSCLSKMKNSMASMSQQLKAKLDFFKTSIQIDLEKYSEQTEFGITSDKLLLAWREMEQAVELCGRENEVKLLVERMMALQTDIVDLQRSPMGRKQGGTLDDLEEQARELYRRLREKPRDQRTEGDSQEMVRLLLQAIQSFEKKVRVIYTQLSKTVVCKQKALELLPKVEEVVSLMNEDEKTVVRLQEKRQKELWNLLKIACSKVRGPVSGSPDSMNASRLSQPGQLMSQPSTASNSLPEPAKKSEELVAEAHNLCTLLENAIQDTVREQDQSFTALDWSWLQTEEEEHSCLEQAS

[4] = target: Insulin-like growth factor 1 receptor (Homo sapiens) (UniProt P08069)
[5] = target: T3, Serine/threonine-protein kinase D1 (Homo sapiens) (UniProt Q15139)
T3 sequence (whole entry): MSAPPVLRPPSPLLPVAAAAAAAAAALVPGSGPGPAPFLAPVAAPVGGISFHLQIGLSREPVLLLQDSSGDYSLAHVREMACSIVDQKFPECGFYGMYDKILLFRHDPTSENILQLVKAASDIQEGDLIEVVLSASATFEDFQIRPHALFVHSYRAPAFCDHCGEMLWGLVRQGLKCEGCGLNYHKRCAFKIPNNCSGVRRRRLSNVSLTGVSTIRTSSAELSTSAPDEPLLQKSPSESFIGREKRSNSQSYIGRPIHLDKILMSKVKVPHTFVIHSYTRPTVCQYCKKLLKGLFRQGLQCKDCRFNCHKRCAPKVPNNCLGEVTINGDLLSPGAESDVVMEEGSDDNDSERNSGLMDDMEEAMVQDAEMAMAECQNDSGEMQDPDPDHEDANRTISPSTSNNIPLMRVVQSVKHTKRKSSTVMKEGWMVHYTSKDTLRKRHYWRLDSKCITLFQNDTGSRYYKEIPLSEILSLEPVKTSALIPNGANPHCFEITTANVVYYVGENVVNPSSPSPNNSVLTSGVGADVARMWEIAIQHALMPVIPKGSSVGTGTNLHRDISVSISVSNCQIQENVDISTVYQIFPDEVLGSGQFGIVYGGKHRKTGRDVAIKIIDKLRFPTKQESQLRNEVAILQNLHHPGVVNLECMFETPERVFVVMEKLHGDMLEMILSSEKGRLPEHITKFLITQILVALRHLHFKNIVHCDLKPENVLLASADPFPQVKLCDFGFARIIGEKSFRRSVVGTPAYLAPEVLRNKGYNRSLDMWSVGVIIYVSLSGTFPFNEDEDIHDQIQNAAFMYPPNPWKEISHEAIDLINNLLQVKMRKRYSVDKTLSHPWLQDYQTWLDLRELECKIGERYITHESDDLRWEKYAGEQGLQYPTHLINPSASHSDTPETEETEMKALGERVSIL

[6] = target: Serine/threonine-protein kinase WNK1 (Homo sapiens) (UniProt Q9H4A3)
[7] = target: Rho-associated protein kinase 1 (Homo sapiens) (UniProt Q13464)
[8] = target: T4, Inhibitor of nuclear factor kappa-B kinase subunit epsilon (Homo sapiens) (UniProt Q14164)
T4 sequence (whole entry): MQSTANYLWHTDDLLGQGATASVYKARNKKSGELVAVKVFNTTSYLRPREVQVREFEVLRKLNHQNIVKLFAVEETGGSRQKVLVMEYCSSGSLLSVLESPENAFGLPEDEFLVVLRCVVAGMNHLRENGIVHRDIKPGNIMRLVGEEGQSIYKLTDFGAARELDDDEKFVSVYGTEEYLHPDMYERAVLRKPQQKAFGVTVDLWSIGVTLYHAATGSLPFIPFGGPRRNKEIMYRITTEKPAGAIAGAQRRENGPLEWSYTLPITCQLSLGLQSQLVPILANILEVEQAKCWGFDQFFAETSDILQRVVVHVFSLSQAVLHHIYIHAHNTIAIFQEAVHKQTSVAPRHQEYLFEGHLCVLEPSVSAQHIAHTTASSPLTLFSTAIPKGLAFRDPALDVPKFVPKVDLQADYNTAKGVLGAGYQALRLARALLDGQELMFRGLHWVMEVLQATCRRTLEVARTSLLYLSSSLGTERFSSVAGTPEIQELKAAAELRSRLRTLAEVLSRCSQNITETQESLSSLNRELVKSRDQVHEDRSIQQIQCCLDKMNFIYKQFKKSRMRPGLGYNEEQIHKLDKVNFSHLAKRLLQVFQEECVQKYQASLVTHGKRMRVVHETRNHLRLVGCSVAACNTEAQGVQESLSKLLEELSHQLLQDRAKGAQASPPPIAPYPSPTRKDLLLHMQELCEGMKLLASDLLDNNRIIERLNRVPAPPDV

Measured: % residual kinase activity

Chain of Rho-associated protein kinase 1 (Homo sapiens) (Q13464 2-1354 limits assumed): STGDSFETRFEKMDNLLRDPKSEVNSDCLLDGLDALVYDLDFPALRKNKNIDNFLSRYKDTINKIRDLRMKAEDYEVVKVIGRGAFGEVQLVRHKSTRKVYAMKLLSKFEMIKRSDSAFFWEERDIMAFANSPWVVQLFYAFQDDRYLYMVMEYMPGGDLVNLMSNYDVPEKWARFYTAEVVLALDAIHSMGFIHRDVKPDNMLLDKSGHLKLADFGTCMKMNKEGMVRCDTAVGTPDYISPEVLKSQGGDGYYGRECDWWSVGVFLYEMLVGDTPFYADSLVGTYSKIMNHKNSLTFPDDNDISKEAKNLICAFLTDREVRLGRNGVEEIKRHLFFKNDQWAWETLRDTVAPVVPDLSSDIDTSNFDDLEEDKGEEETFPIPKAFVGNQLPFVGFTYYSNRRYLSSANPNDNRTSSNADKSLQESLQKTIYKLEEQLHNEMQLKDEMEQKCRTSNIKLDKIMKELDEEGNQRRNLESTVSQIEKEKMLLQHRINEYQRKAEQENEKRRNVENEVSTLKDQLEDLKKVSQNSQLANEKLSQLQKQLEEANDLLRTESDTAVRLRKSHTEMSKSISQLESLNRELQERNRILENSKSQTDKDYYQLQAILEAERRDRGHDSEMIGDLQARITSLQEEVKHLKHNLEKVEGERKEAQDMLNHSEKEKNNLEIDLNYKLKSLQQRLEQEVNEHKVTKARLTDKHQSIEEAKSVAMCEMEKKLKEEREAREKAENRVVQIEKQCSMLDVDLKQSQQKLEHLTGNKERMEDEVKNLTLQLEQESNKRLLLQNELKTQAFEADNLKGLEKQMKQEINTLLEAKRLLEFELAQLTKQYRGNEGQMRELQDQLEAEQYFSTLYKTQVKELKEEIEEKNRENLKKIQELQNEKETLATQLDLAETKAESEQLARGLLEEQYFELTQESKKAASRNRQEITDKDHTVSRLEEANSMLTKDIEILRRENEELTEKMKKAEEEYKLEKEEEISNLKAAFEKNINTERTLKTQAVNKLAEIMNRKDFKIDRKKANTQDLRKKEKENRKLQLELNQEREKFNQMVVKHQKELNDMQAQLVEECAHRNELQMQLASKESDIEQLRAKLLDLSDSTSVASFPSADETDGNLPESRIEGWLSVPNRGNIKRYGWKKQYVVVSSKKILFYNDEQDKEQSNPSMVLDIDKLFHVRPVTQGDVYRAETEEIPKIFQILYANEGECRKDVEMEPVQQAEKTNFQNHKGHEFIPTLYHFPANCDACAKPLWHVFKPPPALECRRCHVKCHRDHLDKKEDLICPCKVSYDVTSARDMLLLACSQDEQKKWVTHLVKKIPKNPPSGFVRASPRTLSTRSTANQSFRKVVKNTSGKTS
Chain of Serine/threonine-protein kinase 10 (Homo sapiens) (O94804 whole entry, looked up): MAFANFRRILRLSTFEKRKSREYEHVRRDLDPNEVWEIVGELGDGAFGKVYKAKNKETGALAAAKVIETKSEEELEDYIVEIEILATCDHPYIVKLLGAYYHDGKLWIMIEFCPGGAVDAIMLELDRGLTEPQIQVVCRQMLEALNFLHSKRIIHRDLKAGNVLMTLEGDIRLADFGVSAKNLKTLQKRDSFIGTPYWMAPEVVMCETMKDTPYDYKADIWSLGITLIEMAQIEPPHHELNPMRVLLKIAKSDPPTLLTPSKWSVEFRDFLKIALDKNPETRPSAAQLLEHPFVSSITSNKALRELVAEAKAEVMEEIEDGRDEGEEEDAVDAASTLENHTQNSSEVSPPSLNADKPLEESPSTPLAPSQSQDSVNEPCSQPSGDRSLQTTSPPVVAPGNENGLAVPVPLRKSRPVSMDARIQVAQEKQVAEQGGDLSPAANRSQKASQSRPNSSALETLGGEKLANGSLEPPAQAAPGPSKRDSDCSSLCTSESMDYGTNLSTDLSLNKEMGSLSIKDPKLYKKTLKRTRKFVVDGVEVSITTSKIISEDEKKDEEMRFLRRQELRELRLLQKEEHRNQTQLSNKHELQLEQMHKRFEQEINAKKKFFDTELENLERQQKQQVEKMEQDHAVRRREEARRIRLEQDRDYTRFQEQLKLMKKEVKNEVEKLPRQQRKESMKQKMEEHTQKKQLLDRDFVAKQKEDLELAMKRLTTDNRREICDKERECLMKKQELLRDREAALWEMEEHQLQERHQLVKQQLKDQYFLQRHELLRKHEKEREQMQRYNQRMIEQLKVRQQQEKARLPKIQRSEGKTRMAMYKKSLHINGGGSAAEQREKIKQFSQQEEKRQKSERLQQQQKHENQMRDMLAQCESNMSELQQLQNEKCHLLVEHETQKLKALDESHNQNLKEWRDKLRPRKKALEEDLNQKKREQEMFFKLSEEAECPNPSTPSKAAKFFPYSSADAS
Chain of Insulin-like growth factor 1 receptor (Homo sapiens) (P08069 31-736 limits assumed): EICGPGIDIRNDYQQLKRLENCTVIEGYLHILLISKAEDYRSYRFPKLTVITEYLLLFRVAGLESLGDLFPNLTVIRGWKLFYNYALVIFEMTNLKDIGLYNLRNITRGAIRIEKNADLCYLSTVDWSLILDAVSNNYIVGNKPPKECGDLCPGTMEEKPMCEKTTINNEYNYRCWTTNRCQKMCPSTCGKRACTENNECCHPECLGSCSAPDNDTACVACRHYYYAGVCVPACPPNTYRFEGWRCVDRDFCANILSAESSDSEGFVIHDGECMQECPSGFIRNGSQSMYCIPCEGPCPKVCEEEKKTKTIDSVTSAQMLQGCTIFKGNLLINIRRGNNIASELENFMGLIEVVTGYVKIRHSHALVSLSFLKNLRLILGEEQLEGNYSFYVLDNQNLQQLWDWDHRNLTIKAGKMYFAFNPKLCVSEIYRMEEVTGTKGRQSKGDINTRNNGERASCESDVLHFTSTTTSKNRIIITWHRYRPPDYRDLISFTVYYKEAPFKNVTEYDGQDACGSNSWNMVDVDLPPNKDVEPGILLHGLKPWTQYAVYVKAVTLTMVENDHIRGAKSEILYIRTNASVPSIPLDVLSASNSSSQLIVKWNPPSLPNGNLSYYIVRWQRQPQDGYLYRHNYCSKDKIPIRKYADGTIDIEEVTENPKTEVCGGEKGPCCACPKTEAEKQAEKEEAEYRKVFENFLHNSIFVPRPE
Chain of Insulin-like growth factor 1 receptor (Homo sapiens) (P08069 741-1367 limits assumed): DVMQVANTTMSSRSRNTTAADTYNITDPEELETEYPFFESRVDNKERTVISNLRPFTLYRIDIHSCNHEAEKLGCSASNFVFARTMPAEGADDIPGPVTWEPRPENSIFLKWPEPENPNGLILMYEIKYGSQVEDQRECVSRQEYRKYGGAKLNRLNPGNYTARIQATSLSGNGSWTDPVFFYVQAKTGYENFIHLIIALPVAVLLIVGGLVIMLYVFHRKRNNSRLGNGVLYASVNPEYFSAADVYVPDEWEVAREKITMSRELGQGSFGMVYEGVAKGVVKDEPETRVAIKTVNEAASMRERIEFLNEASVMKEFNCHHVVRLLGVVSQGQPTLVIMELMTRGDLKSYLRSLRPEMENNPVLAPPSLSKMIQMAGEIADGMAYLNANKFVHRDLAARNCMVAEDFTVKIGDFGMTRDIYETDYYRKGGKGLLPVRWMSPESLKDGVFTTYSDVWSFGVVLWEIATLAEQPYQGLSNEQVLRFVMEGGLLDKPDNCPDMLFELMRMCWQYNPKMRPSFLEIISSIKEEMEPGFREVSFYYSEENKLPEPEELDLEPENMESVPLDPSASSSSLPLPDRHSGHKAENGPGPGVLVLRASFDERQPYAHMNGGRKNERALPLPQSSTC

CN1CCN(c2cnc3c(C4CCN(C(=O)c5ccc(OC(F)(F)F)cc5N)CC4)ncnc3c2)CC1 [BAY-885]
inactive: [1] 121% | [2] 114% | [3] 106% | [4] 90% | [5] 127% | [6] 105% | [7] 112% | [8] 107%
